Data reported in ChEMBL document CHEMBL3392998 (J Med Chem, 2014).

Legend:
Protease = Protease (Human immunodeficiency virus 1, UniProt Q9YQ12); assay: Inhibition of wild-type HIV-1 protease using fluorogenic peptide substrate incubated for 30 mins prior to substrate addition measured after 10 mins by FRET assay
[1] = biological target: Human immunodeficiency virus type 1 protease (Human immunodeficiency virus 1, UniProt Q72874, A71V/G73S/I84V/L10I/L63P/L90M); assay: Inhibition of multidrug resistant HIV-1 protease L10I/L63P/A71V/G73S/I84V/L90M mutant using fluorogenic peptide substrate incubated for 30 mins prior to substrate addition measured after 10 mins by FRET assay
Chain of Human immunodeficiency virus type 1 protease (Q72874 entry or part of it A71V/G73S/I84V/L10I/L63P/L90M): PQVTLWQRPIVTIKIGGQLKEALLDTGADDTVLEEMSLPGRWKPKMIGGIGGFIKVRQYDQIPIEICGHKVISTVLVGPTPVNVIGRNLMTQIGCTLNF

Chain of Protease (Q9YQ12 whole entry): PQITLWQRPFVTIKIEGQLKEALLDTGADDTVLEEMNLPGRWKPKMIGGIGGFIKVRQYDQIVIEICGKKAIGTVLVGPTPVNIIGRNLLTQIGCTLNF

O=C1c2cccc([N+](=O)[O-])c2C(=O)N1c1ccc2[nH]c(=S)sc2c1
Ki (Protease): 96 µM | Ki [1]: 91 µM
